Source: patent publication US20240277796A1, “METHODS FOR INHIBITING RAS” (Revolution Medicines, Inc., priority 2021, published 2024)
“And” between values parts separate entries of the source, which are not always exact repeats. Equal entries are not always repeated. Where two headings read alike, the source gives them in different places.

Columns and labels:
[1] = system: NCI-H358 (K-Ras G12C); test: pERK potency assay, NCI-H358; type: cell-based; conditions: Homo sapiens; NCI-H358 cells, 4 hours incubation with compound
Method: The purpose of this assay was to measure the ability of test compounds to inhibit K-Ras in cells. Activated K-Ras induces increased phosphorylation of ERK at Threonine 202 and Tyrosine 204 (pERK). This procedure measures a decrease in cellular pERK in response to test compounds. The procedure described below in NCI-H358 cells is applicable to K-Ras G12C. […]
NCI-H358 cells were grown and maintained using media and procedures recommended by the ATCC. On the day prior to compound addition, cells were plated in 384-well cell culture plates (40 μl/well) and grown overnight in a 37° C., 5% CO2 incubator. Test compounds were prepared in 10, 3-fold dilutions in DMSO, with a high concentration of 10 mM. On the day of assay, 40 nL of test compound was added to each well of cell culture plate using an Echo550 liquid handler (LabCyte®). Concentrations of test compound were tested in duplicate. After compound addition, cells were incubated 4 hours at 37° C., 5% CO2. Following incubation, culture medium was removed and cells were washed once with phosphate buffered saline.
In some experiments, cellular pERK level was determined using the AlphaLISA SureFire Ultra p-ERK1/2 Assay Kit (PerkinElmer). Cells were lysed in 25 μL lysis buffer, with shaking at 600 RPM at room temperature. Lysate (10 μL) was transferred to a 384-well Opti-plate (PerkinElmer) and 5 μL acceptor mix was added. After a 2-hour incubation in the dark, 5 μL donor mix was added, the plate was sealed, and incubated 2 hours at room temperature. Signal was read on an Envision plate reader (PerkinElmer) using standard AlphaLISA settings. Analysis of raw data was carried out in Excel (Microsoft) and Prism (GraphPad). Signal was plotted vs. the decadal logarithm of compound concentration, and IC50 was determined by fitting a 4-parameter sigmoidal concentration response model.
In other experiments, cellular pERK was determined by In-Cell Western. Following compound treatment, cells were washed twice with 200 μL tris buffered saline (TBS) and fixed for 15 minutes with 150 μL 4% formaldehyde in TBS. Fixed cells were washed 4 times for 5 minutes with TBS containing 0.1% Triton X-100 (TBST) and then blocked with 100 μL Odyssey blocking buffer (LI-COR) for 60 minutes at room temperature. Primary antibody (pERK, CST-4370, Cell Signaling Technology) was diluted 1:200 in blocking buffer, and 50 μL were added to each well and incubated overnight at 4° C. Cells were washed 4 times for 5 minutes with TBST. Secondary antibody (IR-800CW rabbit, LI-COR, diluted 1:800) and DNA stain DRAQ5 (LI-COR, diluted 1:2000) were added and incubated 1-2 hours at room temperature. Cells were washed 4 times for 5 minutes with TBST. Plates were scanned on a Li-COR Odyssey CLx Imager. Analysis of raw data was carried out in Excel (Microsoft) and Prism (GraphPad). Signal was plotted vs. the decadal logarithm of compound concentration, and IC50 was determined by fitting a 4-parameter sigmoidal concentration response model.

[2] = 18-membered ring, DCM

IC50 [1] | Compound | further results
> 1000 nM | C=CC(=O)N1CCOC2(C1)CN(C(=O)N(C)[C@H](C(=O)N[C@H]1C[C@H]3CN(CCO3)c3ccc4c(c3)c(c(-c3cccnc3[C@H](C)OC)n4CC)CC(C)(C)COC(=O)[C@@H]3CCCN(N3)C1=O)C(C)C)C2 (atropisomer, axis not shown) [EA136] | 
 | CO[C@@H](C)c1ncc(N2CCN3CCOC[C@@H]3C2)cc1-c1c2c3cc(ccc3n1CC(F)(F)F)-c1cccc(c1)C[C@H](NC(=O)OC(C)(C)C)C(=O)N1CCC[C@H](N1)C(=O)OCC(C)(C)C2 | ring closure, isolated yield ([2]; from CO[C@@H](C)c1ncc(N2CCN3CCOC[C@@H]3C2)cc1-c1c(CC(C)(C)CO)c2cc(-c3cccc(C[C@H](NC(=O)OC(C)(C)C)C(=O)N4CCC[C@@H](C(=O)O)N4)c3)ccc2n1CC(F)(F)F, ester bond, EDCI/HOBt/DIPEA, 5.3 mM, 16.0 h): 98%
 | prop-2-en-1-yl N-[(7S,13S,19M)-21-ethyl-20-[2-[(1 S)-1-methoxyethyl]pyridin-3-yl]-17,17-dimethyl-8,14-dioxo-4,15-dioxa-3,9,21,27,28-pentaazapentacyclo[17.5.2.1^[2,5]0.1^[9,13]0.0^[22,26]]octacosa-1(25),2,5(28),19,22(26),23-hexaen-7-yl]carbamate | ring closure, isolated yield ([2]; amide bond, HATU/DIEA, 139.0 mM): 33%
 | CO[C@@H](C)c1ncccc1-c1c2c3cc(ccc3n1CC(F)(F)F)-c1coc(n1)C[C@H](NC(=O)OCc1ccccc1)C(=O)N1CCC[C@H](N1)C(=O)OCC(C)(C)C2 | ring closure, isolated yield ([2]; from CO[C@@H](C)c1ncccc1-c1c(CC(C)(C)COC(=O)[C@@H]2CCCNN2)c2cc(-c3coc(C[C@H](NC(=O)OCc4ccccc4)C(=O)O)n3)ccc2n1CC(F)(F)F, amide bond, EDCI/HOBt/DIEA, 6.3 mM, 16.0 h): 21%
> 1000 nM | C=CC(=O)N1COC2(CCN(C(=O)N(C)[C@H](C(=O)N[C@H]3CC4=NC=C(O4)c4ccc5c(c4)c(c(-c4cccnc4[C@H](C)OC)n5CC)CC(C)(C)COC(=O)[C@@H]4CCCN(N4)C3=O)C(C)C)CC2)C1 (atropisomer, axis not shown) [EA37] | 
 | CCn1c(-c2cc(N3CCN4CCOC[C@@H]4C3)cnc2[C@H](C)OC)c2c3cc(ccc31)C1=CCCN(C1)C[C@H](NC(=O)OC(C)(C)C)C(=O)N1CCC[C@H](N1)C(=O)OCC(C)(C)C2 | ring closure, isolated yield ([2]; from CCn1c(-c2cc(N3CCN4CCOC[C@@H]4C3)cnc2[C@H](C)OC)c(CC(C)(C)CO)c2cc(C3=CCCN(C[C@H](NC(=O)OC(C)(C)C)C(=O)N4CCC[C@@H](C(=O)O)N4)C3)ccc21, ester bond, EDC.HCl/HOBt/DIEA, 11.3 mM, 0.0 °C, 2.0 h): 67%
> 1000 nM | CCn1c(-c2cccnc2[C@H](C)OC)c2c3cc(ccc31)N1CCO[C@@H](C[C@H](NC(=O)[C@H](C(C)C)N(C)C(=O)N3CCC4(CC3)CN(C(=O)/C=C/CF)C4)C(=O)N3CCC[C@H](N3)C(=O)OCC(C)(C)C2)C1 (atropisomer, axis not shown) [EA128] | 
> 1000 nM | C=CC(=O)N1CC2(CCN(C(=O)N(C)[C@H](C(=O)N[C@H]3C[C@H]4CN(CCO4)c4ccc5c(c4)c(c(-c4cccnc4[C@H](C)OC)n5CC)CC(C)(C)COC(=O)[C@@H]4CCCN(N4)C3=O)C(C)C)CC2)C1 (atropisomer, axis not shown) [EA121] | 
 | CO[C@@H](C)c1ncccc1-c1c2c3cc(ccc3n1CC(F)(F)F)C1CCN(C1)C[C@H](NC(=O)OC(C)(C)C)C(=O)N1CCC[C@H](N1)C(=O)OCC(C)(C)C2 | ring closure, isolated yield ([2]; from CO[C@@H](C)c1ncccc1-c1c(CC(C)(C)CO)c2cc(C3CCN(C[C@H](NC(=O)OC(C)(C)C)C(=O)N4CCC[C@@H](C(=O)O)N4)C3)ccc2n1CC(F)(F)F, ester bond, EDCI/HOBt/DIEA, 7.1 mM, 16.0 h): 21%
> 1000 nM | C=CC(=O)N1CCN(CC)C2(CCN(C(=O)N(C)[C@H](C(=O)N[C@H]3C[C@H]4CN(CCO4)c4ccc5c(c4)c(c(-c4cccnc4[C@H](C)OC)n5CC)CC(C)(C)COC(=O)[C@@H]4CCCN(N4)C3=O)C(C)C)CC2)C1 (atropisomer, axis not shown) [EA38] | 
> 1000 nM | C=CC(=O)N1CCN(C)C2(CCN(C(=O)N(C)[C@H](C(=O)N[C@H]3C[C@H]4CN(CCO4)c4ccc5c(c4)c(c(-c4cccnc4[C@H](C)OC)n5CC)CC(C)(C)COC(=O)[C@@H]4CCCN(N4)C3=O)C(C)C)CC2)C1 (atropisomer, axis not shown) [EA189] | 
 | CCn1c(-c2cc(N3CCN4CCCC[C@@H]4C3)cnc2[C@H](C)OC)c2c3cc(ccc31)-c1cccc(c1)C[C@H](NC(=O)OC(C)(C)C)C(=O)N1CCC[C@H](N1)C(=O)OCC(C)(C)C2 | ring closure, isolated yield ([2]; from CCn1c(-c2cc(N3CCN4CCCC[C@@H]4C3)cnc2[C@H](C)OC)c(CC(C)(C)CO)c2cc(-c3cccc(C[C@H](NC(=O)OC(C)(C)C)C(=O)N4CCC[C@@H](C(=O)O)N4)c3)ccc21, ester bond, EDCI/HOBt/DIPEA, 11.3 mM, 16.0 h): 62%
> 1000 nM | C=CC(=O)N1CCOC2(CCN(C(=O)N(C)[C@H](C(=O)N[C@H]3Cc4cncc(c4)-c4ccc5c(c4)c(c(-c4cccnc4[C@H](C)OC)n5CC)CC(C)(C)COC(=O)[C@@H]4CCCN(N4)C3=O)C(C)C)CC2)C1 (atropisomer, axis not shown) [EA124] | 
 | tert-butyl ((6^3S, 4S)-1^2-(2-((S)-1-methoxyethyl) pyridin-3-yl)-10,10-dimethyl-5,7-dioxo-1^1-(2,2,2-trifluoroethyl)-6^1,6^2,6^3,6^4,6^5,6^6-hexahydro-1^1H-8-oxa-1(5,3)-indola-6(1,3)-pyridazina-2(3,1)-piperidinacycloundecaphane-4-yl)carbamate | ring closure, isolated yield ([2]; ester bond, EDCI/HOBt/DIEA, 6.1 mM): 8% and 9%
> 890 nM | C=CC(=O)N1CCOC2(CCN(C(=O)N(C)[C@H](C(=O)N[C@H]3C[C@@]4(C)CN(CCO4)c4ccc5c(c4)c(c(-c4cccnc4[C@H](C)OC)n5CC)CC(C)(C)COC(=O)[C@@H]4CCCN(N4)C3=O)C(C)C)CC2)C1 (atropisomer, axis not shown) [EA130] | 
> 1000 nM | CCn1c(-c2cccnc2[C@H](C)OC)c2c3cc(ccc31)C1=CCCN(C1)C[C@H](NC(=O)[C@H](C(C)C)N(C)C(=O)N1CCC3(CCN(C(=O)/C=C/CN(C)C)C3)CC1)C(=O)N1CCC[C@H](N1)C(=O)OCC(C)(C)C2 (atropisomer, axis not shown) [EA192] | 
> 1000 nM | C=CC(=O)N1CCOC2(CCN(C(=O)N(C)[C@H](C(=O)N[C@H]3Cc4cncc(n4)-c4ccc5c(c4)c(c(-c4cccnc4[C@H](C)OC)n5CC)CC(C)(C)COC(=O)[C@@H]4CCCN(N4)C3=O)C(C)C)CC2)C1 (atropisomer, axis not shown) [EA36] | 
> 1000 nM | C=CC(=O)N1CCOC2(CCN(C(=O)N(C)[C@H](C(=O)N[C@H]3Cc4nccc(n4)-c4ccc5c(c4)c(c(-c4cccnc4[C@H](C)OC)n5CC)CC(C)(C)COC(=O)[C@@H]4CCCN(N4)C3=O)C(C)C)CC2)C1 (atropisomer, axis not shown) [EA191] | 
 | tert-butyl ((6^3S,4S)-1^2-(2-((S)-1-methoxyethyl)pyridin-3-yl)-10,10-dimethyl-5,7-dioxo-1^1-(2,2,2-trifluoroethyl)-6^1,6^2,6^3,6^4,6^5,6^6-hexahydro-1^1H-8-oxa-1(5,3)-indola-6(1,3)-pyridazina-2(3,1)-azetidinacycloundecaphane-4-yl)carbamate | ring closure, isolated yield ([2]; ester bond, EDCI/HOBt/DIEA, 6.4 mM, 30.0 °C): 37%
 | tert-butyl ((6^3S,4S,Z)-11-ethyl-1^2-(2-((S)-1-methoxyethyl)pyridin-3-yl)-10,10-dimethyl-5,7-dioxo-6^1,6^2,6^3,6^4,6^5,6^6-hexahydro-1^1H-8-oxa-2(5,3)-oxadiazola-1(5,3)-indola-6(1,3)-pyridazinacycloundecaphane-4-yl)carbamate | ring closure, isolated yield ([2]; ester bond, EDCI/HOBt/DIEA, 6.8 mM): 18%
